Read-outs that look alike come from different tables or passages of the source.
Experiments:
[1] = test system: cellular thymidine kinase (TK); settings: cited from earlier work
HIV = settings: qualitative; cited from earlier work
[2] = test system: HIV-1 based vector containing wild-type (wt) HIV-1 RT; settings: for EC50: read-out: EC50(HOS), HOS cells, 48 h, wt HIV-1 RT vector
HOS-313 cells = assay type: cell-based, human; settings: read-out: CC50(HOS-313), absence of virus, ATP level
[3] = test system: HIV-1 based vector containing wild-type (wt) HIV-1 RT; assay type: cell-based; settings: for EC50: read-out: EC50(HOS-313), HOS-313 cells (HSV-1 TK), 48 h, wt HIV-1 RT vector

Q: Which “Affinity for cellular thymidine kinase (TK)” value ([1]; qualitative) does the source give for `Cc1cn([C@H]2C[C@H](N=[N+]=[N-])[C@@H](CO)O2)c(=O)[nH]c1=O` [AZT] here?
A: equivalent to that of thymidine itself

Q: Which Anti-HIV activity (HIV) does the source give for `Cc1cn([C@H]2C[C@H](O)[C@]3(CO)C[C@H]23)c(=O)[nH]c1=O` [Compound 3a, North-methanocarbathymidine] here?
A: inactive

Q: For `Nc1ncnc2c1ncn2[C@H]1C=C[C@]2(CO)C[C@H]12` [Compound 4c, ((1′R, 4′S, 5′S)-4-(6-Amino-9H-purin-9-yl)bicyclo[3.1.0]hex-2-en-1-yl)methanol], which “Selectivity index (cytotoxicity versus infectivity), HOS cells” value [2] is on record?
A: 25 fold

Q: And the EC50 [2]?
A: 16.7 µM

Q: What about the CC50 (HOS cells; read-out: CC50(HOS), HOS cells, absence of virus, ATP level) of the same compound?
A: 423 µM

Q: And the CC50 (HOS-313 cells)?
A: 246 µM

Q: What about the EC50 [3] of the same compound?
A: 11.1 µM

Q: And the Anti-HIV activity (HIV-1)?
A: active

Q: For `Nc1ccn([C@H]2C=C[C@]3(CO)C[C@H]23)c(=O)n1` [Compound 4d, 4-Amino-1-((1′S, 2′S, 5′R)-5-(hydroxymethyl)bicyclo[3.1.0]hex-3-en-2-yl)pyrimidin-2(1H)-one], which “Cytotoxicity (qualitative)” value (HOS cells) is on record?
A: relatively non-toxic

Q: And the Anti-HIV activity (HIV-1)?
A: inactive

Q: For `Cc1cn([C@@]23C=C[C@@H](CO)[C@@H]2C3)c(=O)[nH]c1=O` [Compound 6a, 1-((1′S, 4′R, 5′S)-4-(Hydroxymethyl)bicyclo[3.1.0]hex-2-en-1-yl)-5-methylpyrimidine-2,4(1H,3H)-dione], which Anti-HIV activity (HIV-1) is on record?
A: inactive

Q: Which Anti-HIV activity (HIV-1) does the source give for `Nc1nc2c(ncn2[C@@]23C=C[C@@H](CO)[C@@H]2C3)c(=O)[nH]1` [Compound 6b, 2-Amino-9-((1′S, 4′R, 5′S)-4-(hydroxymethyl)bicyclo[3.1.0]hex-2-en-1-yl)-1H-purin-6(9H)-one] here?
A: inactive

Q: Which Anti-HIV activity (HIV-1) does the source give for `Nc1ncnc2c1ncn2[C@@]12C=C[C@@H](CO)[C@@H]1C2` [Compound 6c, ((1′S, 2′R, 5′S)-5-(6-Amino-9H-purin-9-yl)bicyclo[3.1.0]hex-3-en-2-yl)methanol] here?
A: inactive

Q: For `Nc1ccn([C@@]23C=C[C@@H](CO)[C@@H]2C3)c(=O)n1` [Compound 6d, 4-Amino-1-((1′S, 4′R, 5′S)-4-(hydroxymethyl)bicyclo[3.1.0]hex-2-en-1-yl)pyrimidin-2(1H)-one], which “Selectivity index (cytotoxicity versus infectivity), HOS cells” value [2] is on record?
A: 15.8

Q: What about the EC50 [2] of the same compound?
A: 26.8 µM

Q: What about the “Selectivity index, HOS-313 cells” value [3] of the same compound?
A: 130

Q: What about the EC50 [3] of the same compound?
A: 3 µM

Q: And the Anti-HIV activity (HIV-1)?
A: +/− active

Q: For `Cc1cn([C@H]2C=C[C@@H](CO)O2)c(=O)[nH]c1=O` [Compound D4T, stavudine], which “Phosphorylation by cellular thymidine kinase (TK), less efficient than for AZT” value [1] is on record?
A: 500 fold

— PMC6776084 (ChemMedChem, 2009)
